SMILES strings stand for the structures. Active and inactive are the calls of the source. The rule behind the calls is not given here.

What all share (format): cell-based
Test [1] addresses T1, Nuclear factor erythroid 2-related factor 2 (Homo sapiens) (UniProt Q16236).
T1 sequence (whole entry): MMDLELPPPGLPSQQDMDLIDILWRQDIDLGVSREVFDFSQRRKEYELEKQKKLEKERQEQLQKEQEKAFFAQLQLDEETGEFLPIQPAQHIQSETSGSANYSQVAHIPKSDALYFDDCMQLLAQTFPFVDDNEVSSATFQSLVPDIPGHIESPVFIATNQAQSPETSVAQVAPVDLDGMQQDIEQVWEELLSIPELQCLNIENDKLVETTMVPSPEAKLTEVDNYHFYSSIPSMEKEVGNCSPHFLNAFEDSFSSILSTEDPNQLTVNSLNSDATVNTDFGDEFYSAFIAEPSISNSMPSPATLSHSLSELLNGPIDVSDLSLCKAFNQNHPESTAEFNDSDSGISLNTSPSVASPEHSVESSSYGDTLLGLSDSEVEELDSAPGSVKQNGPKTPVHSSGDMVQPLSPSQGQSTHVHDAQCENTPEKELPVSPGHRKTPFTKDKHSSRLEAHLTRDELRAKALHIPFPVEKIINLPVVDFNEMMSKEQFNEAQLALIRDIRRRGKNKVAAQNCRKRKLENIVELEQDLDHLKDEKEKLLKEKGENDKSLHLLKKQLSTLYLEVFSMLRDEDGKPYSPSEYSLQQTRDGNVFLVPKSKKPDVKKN
Kind of test: Activation of Nrf2 in human DLD1 cells after 24 to 48 hrs by luciferase reporter gene assay. To be noted: DLD-1. (In general: In a reporter assay the amount or activity of a reporter protein is the signal.)

Test [2] addresses Kelch-like ECH-associated protein 1 (Homo sapiens) (UniProt Q14145). In words: Binding affinity to human recombinant Kelch-DC domain of Keap1 (321 to 609) expressed in HEK293T cells assessed as covalent adduct formation with cysteines at 1 mM after 15 hrs by 2D-FIDA assay. As to conditions: HEK-293T.
The target of test [3] is T1, Nuclear factor erythroid 2-related factor 2 (Homo sapiens). Kind of test: Activation of Nrf2 in human DLD1 cells assessed as stabilization of Nrf2 protein at 20 uM after 48 hrs by Western blot analysis. As to conditions: DLD-1. (In general: In western blotting, separated proteins are transferred to a membrane and probed.)
The target is the same in test [4]. In words: Activation of Nrf2 in human DLD1 cells assessed as increase of NQO1 protein level at 20 uM after 48 hrs by Western blot analysis. To be noted: DLD-1.

Chain of Kelch-like ECH-associated protein 1 (Homo sapiens) (Q14145 whole entry, the tested form may be a part): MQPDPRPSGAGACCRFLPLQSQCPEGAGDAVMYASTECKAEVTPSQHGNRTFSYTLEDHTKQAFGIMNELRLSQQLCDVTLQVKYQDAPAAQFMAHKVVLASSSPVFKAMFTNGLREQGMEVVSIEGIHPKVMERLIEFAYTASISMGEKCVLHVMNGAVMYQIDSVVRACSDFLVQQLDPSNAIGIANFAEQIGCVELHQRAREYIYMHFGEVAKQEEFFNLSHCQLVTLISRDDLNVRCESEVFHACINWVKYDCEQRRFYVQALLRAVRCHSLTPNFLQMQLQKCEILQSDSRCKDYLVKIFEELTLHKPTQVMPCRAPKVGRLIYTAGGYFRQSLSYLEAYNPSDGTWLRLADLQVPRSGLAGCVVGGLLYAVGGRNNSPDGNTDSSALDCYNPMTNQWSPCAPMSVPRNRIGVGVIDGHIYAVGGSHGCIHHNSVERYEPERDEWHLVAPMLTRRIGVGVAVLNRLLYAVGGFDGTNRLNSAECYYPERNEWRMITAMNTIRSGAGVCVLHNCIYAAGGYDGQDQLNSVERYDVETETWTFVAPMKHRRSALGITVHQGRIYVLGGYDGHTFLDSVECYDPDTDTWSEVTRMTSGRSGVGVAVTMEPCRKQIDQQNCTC

In the case of `COC(=O)/C=C/C(=O)OC`, in test [1], the Activity result is “Dose-dependent effect”. In addition, the result in test [2], in test [3] and in test [4] was Active.

For the compound `COc1ccc(S(=O)(=O)Nc2ccc(NS(=O)(=O)c3ccc(OC)cc3)c3ccccc23)cc1`, the Activity entry in test [1] is “Dose-dependent effect”. For the same compound, the outcome in test [2] was inactive. The result in test [3] and in test [4] was Active.

For `COC(=O)/C=C/C(=O)O`, the Activity entry in test [1] is “Dose-dependent effect”.

Values taken from ChEMBL document CHEMBL2401631, “Small molecules inhibit the interaction of Nrf2 and the Keap1 Kelch domain through a non-covalent mechanism” (Bioorg Med Chem, 2013).
